Consider eight compounds from US9550796B2, “Pyrrolopyrrolone derivatives and their use as BET inhibitors” (NOVARTIS AG, priority 2013, dated 2017).

A value given as a limit tells only on which side of the number the result lay.

In experiment [1] the target is BRD3 (Homo sapiens (Human), UniProt Q15059). Nature of the experiment: TR-FRET in-vitro binding assay for BRD3. The conditions noted are these: 45 nM His-Brd3(20-477), acetyl-histone H4 (AcK 5, 8, 12, 16) peptide. The essentials:
(§1)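 Eight-point compound dilutions, delivered in 90% DMSO, were tested in a 13.55 μL final reaction. Reactions ran 35 minutes at 30° C before TR-FRET measurement.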

Experiment [2] has as its target BRD2 (Homo sapiens (Human), UniProt P25440). Put plainly: TR-FRET in-vitro binding assay for BRD2. The note with it: 45 nM His-Brd2(60-472), acetyl-histone H4 (AcK 5, 8, 12, 16) peptide. In outline: as §1
For experiment [3], the system named is K-562. Put plainly: Cell growth inhibition assay (CellTiter-Glo), K-562. Format: cell-based, human. The conditions noted are these: K-562 cells, 4 days; for GI50: Homo sapiens, K562, 96 h, half-maximal growth inhibition; for K-562 TGI: total growth inhibition. The essentials: (§2)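 ATP content was quantified with CellTiter-Glo after 4-day compound treatment (top 10 μM, 3-fold steps) at 37 °C. Readings were background- and day-0-corrected, scaled so vehicle equals 100% and medium equals −100%. Four-parameter fits gave half-maximal (IC50) and total growth inhibition concentrations.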

Experiment [4] has as its target BRD4-NUT-fusion (Homo sapiens, UniProt O60885). Put plainly: Nut-foci formation assay in HCC2494 NUT midline carcinoma cells. The note with it: 24 hours, nuclear BRD4-NUT foci by immunofluorescence microscopy, read-out: HCS Brd4-NUT IC50. It counts as cell-based. How it is done:
Nut-Foci Formation Assay […] Compound-mediated inhibition of BRD4 activity can be monitored by quantification of the number and intensity of nuclear BRD4-NUT foci using automated immunofluorescence microscopy. Briefly, 5000 cells in 20 μL fresh medium are seeded into Poly-D-Lysine-precoated 384-well plates and incubated overnight at 37° C. and 5% CO2, followed by addition of 5 μl medium containing compound dilutions at 5-fold their final intended concentration. […] Assay plates can be imaged using the appropriate filter sets on the Cellomics VTi automated fluorescence microscopy platform (ThermoFisher Scientific) and the population average of the number of NUT-foci per nucleus is quantified using the Cellomics Spot Detection BioApplication image analysis algorithm (ThermoFisher Scientific). […] Compound concentrations leading to half-maximal (IC50) inhibition of the aforementioned readout parameters are determined using standard four parameter curve fitting.

In experiment [5] the test system is MV-4-11. Put plainly: Cell growth inhibition assay (CellTiter-Glo), MV-4-11. It counts as cell-based, human. The note with it: MV-4-11 cells, 4 days; for GI50: Homo sapiens, MV4-11, 96 h, half-maximal growth inhibition; for MV-4-11 TGI: total growth inhibition. In outline: as §2
The subject of experiment [6] is THP-1. Nature of the experiment: Cell growth inhibition assay (CellTiter-Glo), THP-1. It counts as cell-based, human. The note with it: THP-1 cells, 4 days; for GI50: Homo sapiens, 96 h, half-maximal growth inhibition; for THP-1 TGI: total growth inhibition. The essentials: as §2
Experiment [7] addresses BRD4 (Homo sapiens (Human), UniProt O60885). Put plainly: TR-FRET in-vitro binding assay for BRD4. The note with it: 45 nM His-Brd4(44-477), acetyl-histone H4 (AcK 5, 8, 12, 16) peptide. The essentials:
as §1

Experiment [8] has as its target CREBBP (Homo sapiens (Human), UniProt Q92793). Put plainly: AlphaScreen in-vitro binding assay for CREBBP. The note with it: 324 nM His-CREBBP (1081-1197), acetyl-histone H4 (AcK 5, 8, 12) peptide. In outline: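 IC50 values were derived by non-linear regression of percent inhibition across 8 compound concentrations. Protein was His-tagged CREBBP bromodomain (1081-1197), peptide acetyl-histone H4 (AcK 5, 8, 12), in HEPES pH 7.5 buffer. Read-out was AlphaScreen with Ni-chelate acceptor and streptavidin donor beads, 35 min at 30° C then 60 min at RT.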

CREBBP, sequence (Q92793 1081-1197): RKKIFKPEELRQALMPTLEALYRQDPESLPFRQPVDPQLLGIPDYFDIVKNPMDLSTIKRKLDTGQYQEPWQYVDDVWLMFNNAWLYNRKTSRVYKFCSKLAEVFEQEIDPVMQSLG
BRD3, sequence (Q15059 20-477): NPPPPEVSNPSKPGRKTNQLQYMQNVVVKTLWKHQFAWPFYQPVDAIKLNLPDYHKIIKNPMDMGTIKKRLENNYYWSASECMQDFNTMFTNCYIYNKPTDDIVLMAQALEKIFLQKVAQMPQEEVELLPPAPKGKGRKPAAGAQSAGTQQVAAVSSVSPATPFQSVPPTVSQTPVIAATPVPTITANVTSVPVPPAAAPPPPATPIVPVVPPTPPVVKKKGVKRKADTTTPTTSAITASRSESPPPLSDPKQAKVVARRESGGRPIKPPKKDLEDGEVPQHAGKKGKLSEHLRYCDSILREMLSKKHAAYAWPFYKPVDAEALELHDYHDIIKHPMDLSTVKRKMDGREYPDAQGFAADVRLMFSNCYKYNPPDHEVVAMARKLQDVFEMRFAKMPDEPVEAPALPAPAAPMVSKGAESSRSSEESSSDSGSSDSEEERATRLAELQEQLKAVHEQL
BRD2, sequence (P25440 60-472): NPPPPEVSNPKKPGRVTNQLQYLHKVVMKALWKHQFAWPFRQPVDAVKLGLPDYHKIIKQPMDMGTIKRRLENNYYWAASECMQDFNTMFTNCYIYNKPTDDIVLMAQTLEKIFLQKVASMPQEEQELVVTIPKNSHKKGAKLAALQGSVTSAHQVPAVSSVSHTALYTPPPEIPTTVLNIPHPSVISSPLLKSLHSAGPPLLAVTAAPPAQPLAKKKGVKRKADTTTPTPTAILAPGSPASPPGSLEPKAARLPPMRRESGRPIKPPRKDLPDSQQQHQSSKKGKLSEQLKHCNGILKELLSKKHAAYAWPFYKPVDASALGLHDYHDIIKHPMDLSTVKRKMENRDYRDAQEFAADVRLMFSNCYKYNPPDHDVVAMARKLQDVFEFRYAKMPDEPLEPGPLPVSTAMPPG

In the case of `COc1ncc(-c2cc3c(n2C)C(c2ccc(Cl)cc2)N(c2cc(C)c(=O)n(C)c2)C3=O)cn1` (stereo not drawn) [Example 55, 6-(4-chlorophenyl)-5-(1,5-dimethyl-6-oxo-1,6-dihydropyridin-3-yl)-2-(2-methoxypyrimidin-5-yl)-1-methyl-5,6-dihydropyrrolo[3,4-b]pyrrol-4(1H)-one], the IC50 in experiment [1] was found to be 50 nM; in experiment [2], 53 nM; in experiment [4], 146 nM; in experiment [7], 52 nM. Further, the GI50 was found to be 231 nM in experiment [3], 34.5 nM in experiment [5] and 76.3 nM in experiment [6]. In addition, the “K-562 TGI” value in experiment [3] is >10000 nM. In experiment [5], the “MV-4-11 TGI” value was 54.2 nM. In experiment [6], the “THP-1 TGI” value came to 130 nM.

With `Cc1cc(N2C(=O)c3cc(-c4ccc(N(C)C)nc4)n(C)c3C2c2ccc(Cl)cc2)cn(C)c1=O` (stereo not drawn) [Example 50, 6-(4-chlorophenyl)-5-(1,5-dimethyl-6-oxo-1,6-dihydropyridin-3-yl)-2-(6-(dimethylamino)pyridin-3-yl)-1-methyl-5,6-dihydropyrrolo[3,4-b]pyrrol-4(1H)-one], the IC50 came to 42 nM in experiment [1], 37 nM in experiment [2], 73.3 nM in experiment [4] and 46 nM in experiment [7]. Besides, the GI50 in experiment [3] amounted to 105 nM; in experiment [5] it was 20.8 nM; in experiment [6] it was 31.6 nM. Also, the “K-562 TGI” value in experiment [3] is >10000 nM. The “MV-4-11 TGI” value in experiment [5] is 33 nM. Also, in experiment [6], the “THP-1 TGI” value stood at 64.9 nM.

Turning to `Cc1cc(N2C(=O)c3ccn(C4CC4)c3C2c2ccc(Cl)cc2)cn(C)c1=O` (stereo not drawn) [Example 61, 6-(4-chlorophenyl)-1-cyclopropyl-5-(1,5-dimethyl-6-oxo-1,6-dihydropyridin-3-yl)-5,6-dihydropyrrolo[3,4-b]pyrrol-4(1H)-one], the IC50 in experiment [1] came out at 53 nM; in experiment [2] it was 68 nM; in experiment [4], 136 nM; in experiment [7], 68 nM. For the same compound, the GI50 in experiment [3] amounted to 421 nM; in experiment [5], 61.6 nM; in experiment [6], 102 nM. Moreover, the “K-562 TGI” value in experiment [3] was >10000 nM. The “MV-4-11 TGI” value in experiment [5] is 106 nM. In addition, in experiment [6], the “THP-1 TGI” value was found to be 224 nM.

Take `Cn1ccc2c1C(c1ccc(Cl)cc1)N(c1ccc(=O)n(C)c1)C2=O` (stereo not drawn) [Example 78, 6-(4-chlorophenyl)-1-methyl-5-(1-methyl-6-oxo-1,6-dihydropyridin-3-yl)-5,6-dihydropyrrolo[3,4-b]pyrrol-4(1H)-one]: in experiment [3], it took 1610 nM to inhibit growth by half (GI50) and the “K-562 TGI” value was >10000 nM. In addition, the IC50 in experiment [4] came to 729 nM. Besides, in experiment [5], the GI50 came out at 486 nM and the “MV-4-11 TGI” value stood at 794.5 nM. In addition, in experiment [6], growth was halved (GI50) at 573 nM and the “THP-1 TGI” value turned out to be 1350 nM. In experiment [7], this compound gave an IC50 of 150 nM.

Turning to `CCOC(=O)n1ccc2c1C(c1ccc(Cl)cc1)N(c1cc(C)c3nnc(C)n3c1)C2=O` (stereo not drawn) [Example 22, Ethyl 6-(4-chlorophenyl)-5-(3,8-dimethyl-[1,2,4]triazolo[4,3-a]pyridin-6-yl)-4-oxo-5,6-dihydropyrrolo[3,4-b]pyrrole-1(4H)-carboxylate], the IC50 came to 12500 nM in experiment [8], 26 nM in experiment [1], 38 nM in experiment [2] and 25 nM in experiment [7]. Moreover, the GI50 was determined as 226 nM in experiment [3], 46.8 nM in experiment [5] and 60.1 nM in experiment [6]. Further, the “K-562 TGI” value in experiment [3] is >10000 nM. Moreover, the “MV-4-11 TGI” value in experiment [5] is 86.15 nM. Moreover, the “THP-1 TGI” value in experiment [6] came out at 130 nM.

On to `Cc1cc(N2C(=O)c3c(C4CC4)cn(C4COC4)c3C2c2ccc(Cl)cc2)nc2c1nnn2C` (stereo not drawn) [Example 104, 6-(4-chlorophenyl)-3-cyclopropyl-5-(3,7-dimethyl-3H-[1,2,3]triazolo[4,5-b]pyridin-5-yl)-1-(oxetan-3-yl)-5,6-dihydropyrrolo[3,4-b]pyrrol-4(1H)-one], for which the IC50 in experiment [8] was determined as 14800 nM; in experiment [1], 21 nM; in experiment [2] it was 35 nM; in experiment [7] it was 21 nM. Moreover, the GI50 in experiment [3] came to 36.5 nM; in experiment [5], 2.98 nM; in experiment [6] it was 6.31 nM. The “K-562 TGI” value in experiment [3] was >10000 nM. Moreover, the “MV-4-11 TGI” value in experiment [5] came out at 11 nM. For the same compound, in experiment [6], the “THP-1 TGI” value is 18.4 nM.

As to `Cc1ccc(C2c3c(ccn3C)C(=O)N2c2cc(Cl)c(=O)n(C)c2)cc1` (stereo not drawn) [Example 87, 5-(5-chloro-1-methyl-6-oxo-1,6-dihydropyridin-3-yl)-1-methyl-6-(p-tolyl)-5,6-dihydropyrrolo[3,4-b]pyrrol-4(1H)-one], the IC50 in experiment [8] is 4100 nM; in experiment [1], 76.3 nM; in experiment [2] it was 108 nM; in experiment [7] it was 120 nM. In addition, the results for the GI50 in experiment [3], in experiment [5] and in experiment [6] were 266 nM, 75.3 nM and 83.9 nM, respectively. The “K-562 TGI” value in experiment [3] is >10000 nM. Also, in experiment [5], the “MV-4-11 TGI” value was found to be 151 nM. The “THP-1 TGI” value in experiment [6] stood at 255 nM.

Turning to `CNC(=O)c1cn(C)c2c1C(=O)N(c1cc(C)c3nnc(C)n3c1)C2c1ccc(Cl)cc1` (stereo not drawn) [Example 99, 6-(4-chlorophenyl)-5-(3,8-dimethyl-[1,2,4]triazolo[4,3-a]pyridin-6-yl)-N,1-dimethyl-4-oxo-1,4,5,6-tetrahydropyrrolo[3,4-b]pyrrole-3-carboxamide], the 50% inhibitory concentration (IC50) in experiment [8] is > 37000 nM; in experiment [1] it was 13 nM; in experiment [2], 16 nM; in experiment [7] it was < 11 nM. Moreover, the figures for the GI50 in experiment [3], in experiment [5] and in experiment [6] were 138 nM, 13.6 nM and 27.8 nM, respectively. The “K-562 TGI” value in experiment [3] is >10000 nM. Besides, the “MV-4-11 TGI” value in experiment [5] was determined as 38.3 nM. Besides, the “THP-1 TGI” value in experiment [6] was 96 nM.
